For series [1] the following is noted: literature value (ref 40); cited from earlier work.
For series [2] the following is noted: literature value (ref 11); cited from earlier work.
For series [3] the following is noted: cited from earlier work.
Series [4] is described as follows: Protonation constants by combined potentiometric-spectrophotometric and acidic in-batch UV-vis titrations. The series is classed as physicochemical. The following applies: 25° C. The text has this:
Prior to investigation of the thermodynamic stability of different metal complexes, the protonation constants of the chelating ligand must be determined independently, due to the competition between a given metal ion with a proton for the same coordinating group in the metal complex reaction. Combined potentiometric and UV-vis spectrophotometric titrations were used to evaluate the protonation constants of H4noneunpaX between pH˜2-11.5, while acidic in-batch UV-vis spectrophotometric titrations were used to determine the protonation constants for the most acidic protons, which were below the threshold of the pH electrode (pH<2). All eight protonation constants for H4noneunpaX were determined through refinement of the experimental data using HyperSpec^24 and Hyperquad^25, Table 3.
(§1) All potentiometric titrations were carried out with a Metrohm Titrando 809 and a Metrohm Dosino 800 with a Ross combined electrode. Direct titrations were recorded using a Varian Cary 60 UV-vis spectrophotometer (200-350 nm spectral range) equipped with an optic dip probe (0.2 cm path length), while acidic in-batch experiments were measured with a standardised glass cuvette (1 cm path length). A temperature-controlled (298 K) 20 mL glass cell with an inlet-outlet adapter for nitrogen gas purging (purified via a 10% NaOH solution to exclude CO2 prior to and during each titration) was used as a titration cell. The electrode was calibrated daily in hydrogen ion concentration by direct titration of HCl with freshly prepared NaOH solution, and the results were analysed with the Gran procedure^55 to determine the standard potential (E°) and the ionic product of water (pKw), at 298 K, with 0.16 M NaCl as a supporting electrolyte. Solutions under study were titrated with carbonate-free NaOH solution (˜0.16 M) which was standardized against freshly recrystallized potassium hydrogen phthalate.
The protonation equilibria of H4noneunpaX were evaluated through combined potentiometric-spectrophotometric titrations of solutions containing the ligand ([L]=9.57×10^−4 M) in 0.16 M NaCl (T=298 K, I=0.2 cm). Electromotive force (EMF) values and UV-vis spectra were recorded after each addition of NaOH, and the apparatuses synchronized to have consistent time-intervals (30 s) between each addition/equilibration and data acquisition. Further acidic in-batch UV-vis spectrophotometry studies were performed to obtain the protonation constants for the most acidic ionisable protons of H4noneunpaX, which were below the threshold of the pH electrode (pH<2). Separate solutions of the ligand were prepared at constant molarity ([L]=1×10^−4 M) with differing amounts of HCl (0.1 M and 3.0 M), while maintaining a constant ionic strength (0.16 M NaCl) wherever possible. In each case, the solution stoichiometry was used to calculate the equilibrium concentration of H^+ ions, following the Hammett acidity function (H0) for determination of acidity in high concentration acid solutions. All eight protonation constants for H4noneunpaX were determined through refinement of the experimental data using HypSpec2014^24 and Hyperquad2013^25 software.
(§2) All the potentiometric measurements were processed using the Hyperquad2013^25 software, while spectroscopic measurements were analysed using HypSpec2014.^24 Proton dissociation constants corresponding to hydrolysis of the Sc^3+, In^3+, Lu^3+, Dy^3+ Gd^3+, Sm^3+, and La^3+ aqueous ions used in the calculations were taken from Baes and Mesmer. Speciation diagrams were generated with the calculated protonation constants and stability constants using Hyss software.^56
(§3) Each species generated in the investigated systems can be defined in accordance with the general equilibrium equation pM+qH+rL=MpHqLr (charges omitted). Wherein, a complex containing a metal ion, M, proton, H and ligand, L, has the general formula MpHqLr. […]

Series [5] can be described thus: Complex formation equilibria (stability constants) with Sc^3+. The series is classed as physicochemical. The method, then:
(§4) To evaluate the affinity of H4noneunpaX towards metal ions of medicinal importance—e.g. Sc^3+, In^3+, Lu^3+, Dy^3+, Gd^3+, Sm^3+, La^3+— the complex formation equilibria were studied using both combined potentiometric-spectrophotometric titrations, and in all cases, acidic in-batch UV-vis spectrophotometric titrations below pH 2. […]
as §1, with “Solutions under study were titrated with carbonate-free NaOH solution (˜0.16 M) which was standardized against freshly recrystallized potassium hydrogen phthalate.” left out
(§5) The complex formation equilibria of H4noneunpaX with Sc^3+, In^3+, Lu^3+, Dy^3+, Gd^3+, Sm^3+, and La^3+ were evaluated using both combined potentiometric-spectrophotometric titrations, and acidic in-batch UV-vis spectrophotometric titrations below pH 2. […] Measurements were recorded at T=298 K, I=1.0 cm, the Hammett acidity function (H0) was used determination of the pH in highly acidic solutions rather than electrode potentials. Metal solutions were prepared from atomic absorption spectroscopy (AAS) standards, which were previously evaluated using Gran's method of titrating equimolar solutions of a given metal ion and Na2H2EDTA against NaOH to determine the acid concentration. […]

The nature of series [6]: Complex formation equilibria (stability constants) with In^3+. The series is classed as physicochemical. As to the method: as §4, §1
The complex formation equilibria of H4noneunpaX with Sc^3+, In^3+, Lu^3+, Dy^3+, Gd^3+, Sm^3+, and La^3+ were evaluated using both combined potentiometric-spectrophotometric titrations, and acidic in-batch UV-vis spectrophotometric titrations below pH 2. For combined potentiometric-spectrophotometric titrations (spectral range: 200-350 nm), solutions containing a 1:1 molar ratio of metal-to-ligand ([M^3+]≈[H4noneunpaX]=8.40×10^−4 M) were titrated against NaOH solution at T=298 K, I=0.2 cm. Acidic in-batch UV-vis spectrophotometric measurements (spectral range: 200-350 nm) were carried out using sets of solutions containing a 1:1 molar ratio of metal-to-ligand ([M^3+]≈[H4noneunpaX]≈1×10^−4 M) with differing amounts of HCl (0.1 M and 3.0 M), to give samples ranging from pH 0-2. Measurements were recorded at T=298 K, I=1.0 cm, the Hammett acidity function (H0) was used determination of the pH in highly acidic solutions rather than electrode potentials. Metal solutions were prepared from atomic absorption spectroscopy (AAS) standards, which were previously evaluated using Gran's method of titrating equimolar solutions of a given metal ion and Na2H2EDTA against NaOH to determine the acid concentration.
as §2, §3

A short description of series [7]: Complex formation equilibria (stability constants) with Lu^3+. The series is classed as physicochemical. The method, then:
as §4
as §1, with “Solutions under study were titrated with carbonate-free NaOH solution (˜0.16 M) which was standardized against freshly recrystallized potassium hydrogen phthalate.” left out
as §5

A short description of series [8]: Complex formation equilibria (stability constants) with Dy^3+. The series is classed as physicochemical. As to the method: as §4
as §1, with “Solutions under study were titrated with carbonate-free NaOH solution (˜0.16 M) which was standardized against freshly recrystallized potassium hydrogen phthalate.” left out
as §5

Series [9] is described as follows: Complex formation equilibria (stability constants) with Gd^3+. The series is classed as physicochemical. The method, then:
as §4
as §1, with “Solutions under study were titrated with carbonate-free NaOH solution (˜0.16 M) which was standardized against freshly recrystallized potassium hydrogen phthalate.” left out
as §5

Series [10] is described as follows: Complex formation equilibria (stability constants) with Sm^3+. The series is classed as physicochemical. As to the method: as §4
as §1, with “Solutions under study were titrated with carbonate-free NaOH solution (˜0.16 M) which was standardized against freshly recrystallized potassium hydrogen phthalate.” left out
as §5

Series [11] is described as follows: Complex formation equilibria (stability constants) with La^3+. The series is classed as physicochemical. The method, then: as §4
as §1, with “Solutions under study were titrated with carbonate-free NaOH solution (˜0.16 M) which was standardized against freshly recrystallized potassium hydrogen phthalate.” left out
as §5

Series [12] is described as follows: Human serum stability challenge. The series is classed as in vitro ADME. Conditions: complexes with [^111In]In^3+, [^155Tb]Tb^3+, [^177Lu]Lu^3+, [^225Ac]Ac^3+; 37° C., 5-7 days. As to the method:
All experiments were performed at 37° C. and monitored via radio-iTLC (n=3).
Human serum stability studies were carried out by addition of each radiolabelled complex or bioconjugate (100 μL) to vials containing human serum albumin (100 μL) and incubating the resulting solutions at 37° C. over 5-7 days. The radiochemical purity (RCP) was determined by iTLC using SA-paper plates and EDTA (50 mM, pH 5.5 or 7.0) as eluent, whereby transchelated radioactivity migrates with the solvent front (Rf=1.0) while intact metal complexes remain at the baseline (Rf=0). All studies were performed in triplicate, and the average % RCP used for assessment of each compound.

Setting [13] is: −log[Mfree] when [L] = 10 μM, [M] = 1 μM at pH 7.4.

For [^177Lu][Lu(DOTATATE)], in series [1], the “accumulation in the adrenal glands” value is 8.95 % ID/g, the “accumulation in the lungs” value is recorded as 17.4 % ID/g, the “accumulation in the pancreas” value is reported as 10.9 % ID/g and the “uptake in the kidneys” value was 6.31 % ID/g.

On to `O=C(O)CN1CCN(CC(=O)O)CCN(CC(=O)O)CCN(CC(=O)O)CC1` [DOTA], for which the pLu in series [2] is listed as 17.1.

In the case of `O=C(O)CN(CCN(CC(=O)O)CC(=O)O)CCN(CC(=O)O)CC(=O)O` [DTPA], the pLu in series [2] is 19.1.

Consider `O=C(O)CN(CCOCCN(CC(=O)O)Cc1cccc(C(=O)O)n1)Cc1cccc(C(=O)O)n1` [H4noneunpa], for which the “log K2” value in [3] (literature value (ref 13), terminal amine) is on record as 7.63.

`O=C(O)CN(CCOCCN(Cc1cccc(C(=O)O)n1)Cc1cccc(C(=O)O)n1)CC(=O)O` [H4noneunpaX]: the “Σlog KHqL” value in [4] (I = […] NaCl) was 27.35 (6). For the same compound, the “log K (log K3)” value in series [4] (H2L + H^+ ↔ H3L, I = […] NaCl) came out at 3.79. In addition, the “log β” value in series [4] (H2L + H^+ ↔ H3L, I = […] NaCl) is 19.71 (1); in [4] (H3L + H^+ ↔ H4L, I = […] NaCl) it was 22.54 (2); in series [4] (H4L + H^+ ↔ H5L, I = […] NaCl), 24.92 (3); in series [4] (H5L + H^+ ↔ H6L, I = […] NaCl), 27.06 (4); in series [4] (H6L + H^+ ↔ H7L, I = […] NaCl), 28.07 (4); in series [4] (H7L + H^+ ↔ H8L) it was 27.35 (6). For the same compound, the “log β” value in [4] (HL + H^+ ↔ H2L, I = […] NaCl) is reported as 15.92 (1); in series [4] (L + H^+ ↔ HL, I = […] NaCl) it was 8.84 (1). The “log K (log K4)” value in series [4] (H3L + H^+ ↔ H4L, I = […] NaCl) is on record as 2.83. Moreover, in series [4] (H4L + H^+ ↔ H5L, I = […] NaCl), the “log K (log K5)” value amounted to 2.38. In addition, the “log K (log K6)” value in series [4] (H5L + H^+ ↔ H6L, I = […] NaCl) is recorded as 2.14. Also, the “log K” value in [4] (H6L + H^+ ↔ H7L, I = […] NaCl) was found to be 1.01. Also, the “log K (log K2)” value in [4] (HL + H^+ ↔ H2L, I = […] NaCl) is reported as 7.08. The “log K (log K1)” value in series [4] (L + H^+ ↔ HL, I = […] NaCl) is 8.84. Besides, the “log KMHL” value in series [5] (25° C., I = […] NaCl) was 3.07(1); in series [6] (25° C., I = […] NaCl), 6.17(3); in series [7] (25° C., I = […] NaCl) it was 2.28(3); in [8] (25° C., I = […] NaCl), 2.29(2); in series [9] (25° C., I = […] NaCl) it was 2.80(1); in series [10] (25° C., I = […] NaCl), 2.77(1). Besides, in [11] (25° C., I = […] NaCl), the “log KMHL” value is reported as 3.22(2). For the same compound, the “log KML” value in series [5] (25° C., I = […] NaCl) is reported as 23.57(2); in series [6] (25° C., I = […] NaCl) it was 27.64(2); in series [7] (25° C., I = […] NaCl), 21.93(3); in series [8] (25° C., I = […] NaCl), 21.99(5); in [9] (25° C., I = […] NaCl), 20.87(4); in [10] (25° C., I = […] NaCl), 21.04(2). Further, the “log KML” value in series [11] (25° C., I = […] NaCl) is 18.45(4). Besides, the pM was 22.9 in [5] (setting [13]); 26.5 in [6] (setting [13]); 21.3 in [7] (setting [13]); 21.3 in [8] (setting [13]); 20.2 in series [9] (setting [13]); 20.4 in series [10] (setting [13]). In series [11] (setting [13]), this compound yielded a pM of 17.8. Besides, the “log KM(OH)2L” value in [6] (25° C., I = […] NaCl) is listed as 9.06(4). Moreover, the “log KM(OH)L” value in series [6] (25° C., I = […] NaCl) is reported as 8.58(4). For the same compound, the “release of bound radiometal in human serum” value in [12] was “no release of bound radiometal”.

Consider `O=C(O)CN(CCO)CC(=O)O` [HEIDA, N-(2-hydroxyethyl)iminodiacetic acid], for which, in series [3] (literature value (ref 26), iminodiacetate amine), the “log K1” value is reported as 8.68.

The values above are taken from patent publication US20240254085A1, “CHELATORS FOR RADIOMETALS AND METHODS OF MAKING AND USING SAME” (The University of British Columbia, priority 2021, published 2024).
